Drawing on patent US20240076285A1, “COMPOUNDS AND COMPOSITIONS FOR TREATING CONDITIONS ASSOCIATED WITH STING ACTIVITY” (IFM Due, Inc., priority 2020, published 2024), this text covers EC50 for 33 compounds.

In this experiment the target is T1, hSTING (Homo sapiens, UniProt Q86WV6, G230A/H232R/R293Q/R71H).
T1 construct: host or cells: THP1-Dual KO-IFNAR2 cells
Briefly: STING reporter assay in THP1-Dual KO-IFNAR2 cells (2'3'cGAMP stimulation, luciferase reporter). The settings on record: 15 μM 2'3'cGAMP, 24 h. It is filed as cell-based. How it is done:
STING pathway activation by the compounds described herein was measured using THP1-Dual™ cells (KO-IFNAR2).
THP1-Dual™ KO-IFNAR2 Cells (obtained from invivogen) were maintained in RPMI, 10% FCS, 5 ml P/S, 2 mM L-glut, 10 mM Hepes, and 1 mM sodium pyruvate. Compounds were spotted in empty 384 well tissue culture plates (Greiner 781182) by Echo for a final concentration of 0.0017-100 μM. Cells were plated into the TC plates at 40 μL per well, 2×10E6 cells/mL. For activation with STING ligand, 2′3′cGAMP (MW 718.38, obtained from Invivogen), was prepared in Optimem media.
The following solutions were prepared for each 1×384 plate: • Solution A: 2 mL Optimem with one of the following stimuli: • 60 μL of 10 mM 2′3′cGAMP→150 μM stock • Solution B: 2 mL Optimem with 60 μL Lipofectamine 2000→Incubate 5 min at RT
2 mL of solution A and 2 ml Solution B was mixed and incubated for 20 min at room temperature (RT). 20 μL of transfection solution (A+B) was added on top of the plated cells, with a final 2′3′cGAMP concentration of 15 μM. The plates were then centrifuged immediately at 340 g for 1 minute, after which they were incubated at 37° C., 5% CO2, >98% humidity for 24 h. Luciferase reporter activity was then measured. EC50 values were calculated by using standard methods known in the art.
Luciferase reporter assay: 10 μL of supernatant from the assay was transferred to white 384-plate with flat bottom and squared wells. One pouch of QUANTI-Luc™ Plus was dissolved in 25 mL of water. 100 μL of QLC Stabilizer per 25 mL of QUANTI-Luc™ Plus solution was added. 50 μL of QUANTI-Luc™ Plus/QLC solution per well was then added. Luminescence was measured on a Platereader (e.g., Spectramax I3X (Molecular Devices GF3637001)).
Luciferase reporter activity was then measured. EC50 values were calculated by using standard methods known in the art.
(In general: Reporter assays use an easily measured gene product as a stand-in for the process of interest.)

Broadly, the EC50 is the concentration at which the effect is half-maximal. Read a low EC50 as an effect from little substance.

Some results are limits rather than exact numbers.

T1 sequence (Q86WV6 whole entry R71H/G230A/H232R/R293Q): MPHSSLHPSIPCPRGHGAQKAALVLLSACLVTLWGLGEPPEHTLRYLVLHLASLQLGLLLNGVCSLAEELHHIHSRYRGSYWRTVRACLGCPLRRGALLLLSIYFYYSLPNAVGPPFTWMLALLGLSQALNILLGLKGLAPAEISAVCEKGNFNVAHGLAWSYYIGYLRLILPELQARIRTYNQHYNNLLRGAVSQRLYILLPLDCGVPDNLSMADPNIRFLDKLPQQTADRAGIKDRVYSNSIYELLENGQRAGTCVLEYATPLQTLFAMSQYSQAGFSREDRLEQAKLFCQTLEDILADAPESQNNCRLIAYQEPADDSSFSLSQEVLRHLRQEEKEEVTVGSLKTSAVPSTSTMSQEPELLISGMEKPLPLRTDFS

Consider `N#Cc1cc(Nc2ccc3c(c2)CC(=O)N3)cc(Nc2ccc3cc[nH]c3c2)n1` [Compound 101, 6-[(1H-indol-6-yl)amino]-4-[(2-oxo-2,3-dihydro-1H-indol-5-yl)amino]pyridine-2-carbonitrile], for which, under “class symbols”, the 50% effective concentration (EC50) lay within 5 to 100 µM.

The compound `Cc1ccc(Nc2cc(C#N)nc(Nc3ccc4cc[nH]c4c3)c2)cn1` [Compound 102, 6-[(1H-indol-6-yl)amino]-4-[(6-methylpyridin-3-yl)amino]pyridine-2-carbonitrile] showed a concentration giving a half-maximal response (EC50) (numeric bound) of over 30 µM.

`COC1CCN(c2cc(C#N)nc(Nc3ccc4cc[nH]c4c3)c2)CC1` [Compound 103, 6-[(1H-indol-6-yl)amino]-4-(4-methoxypiperidin-1-yl)pyridine-2-carbonitrile] gave an EC50 (numeric bound) of over 30 µM.

Compound `N#Cc1cc(Nc2ccc(C(F)(F)F)c(F)c2)cc(Nc2ccc3cc[nH]c3c2)n1` [Compound 104, 4-{[3-fluoro-4-(trifluoromethyl)phenyl]amino}-6-[(1H-indol-6-yl)amino]pyridine-2-carbonitrile] showed an EC50 (class symbols) of 0.2 to 1 µM.

The compound `Cc1nc2ccc(Nc3cc(C#N)nc(Nc4ccc5cc[nH]c5c4)c3)cc2s1` [Compound 105, 6-[(1H-indol-6-yl)amino]-4-[(2-methyl-1,3-benzothiazol-6-yl)amino]pyridine-2-carbonitrile] yielded a concentration for a half-maximal effect (EC50) (class symbols) of 1 to 5 µM.

Regarding `N#Cc1cc(N2CCC(F)(F)CC2)cc(Nc2ccc3cc[nH]c3c2)n1` [Compound 106, 4-(4,4-difluoropiperidin-1-yl)-6-[(1H-indol-6-yl)amino]pyridine-2-carbonitrile], the EC50 (numeric bound) is over 30 µM.

Turning to `Cc1nc2cc(Nc3cc(C#N)nc(Nc4ccc5cc[nH]c5c4)c3)ccc2s1` [Compound 107, 6-[(1H-indol-6-yl)amino]-4-[(2-methyl-1,3-benzothiazol-5-yl)amino]pyridine-2-carbonitrile], the EC50 (class symbols) lay within 1 to 5 µM.

For `Cc1nn(C)c2ccc(Nc3cc(C#N)nc(Nc4ccc5cc[nH]c5c4)c3)cc12` [Compound 108, 4-[(1,3-dimethyl-1H-indazol-5-yl)amino]-6-[(1H-indol-6-yl)amino]pyridine-2-carbonitrile], the concentration giving a half-maximal response (EC50) (class symbols) lay within 1 to 5 µM.

For the compound `N#Cc1cc(Nc2cncc(Cl)c2)cc(Nc2ccc3cc[nH]c3c2)n1` [Compound 109, 4-[(5-chloropyridin-3-yl)amino]-6-[(1H-indol-6-yl)amino]pyridine-2-carbonitrile], the half-maximal effective concentration (EC50) (class symbols) lay within 1 to 5 µM.

As to `N#Cc1cc(Nc2cc(F)cc(C(F)(F)F)c2)cc(Nc2ccc3cc[nH]c3c2)n1` [Compound 110, 4-{[3-fluoro-5-(trifluoromethyl)phenyl]amino} 6-[(1H-indol-6-yl)amino]pyridine-2-carbonitrile], the concentration giving a half-maximal response (EC50) (class symbols) fell in the range of 0.2 to 1 µM.

For the compound `CCc1ccc(Nc2cc(C#N)nc(Nc3ccc4cc[nH]c4c3)c2)cn1` [Compound 111, 4-[(6-ethylpyridin-3-yl)amino]-6-[(1H-indol-6-yl)amino]pyridine-2-carbonitrile], the concentration for a half-maximal effect (EC50) (class symbols) was 1 to 5 µM.

For the setting “class symbols”, `COc1cc(Cl)cc(Nc2cc(C#N)nc(Nc3ccc4cc[nH]c4c3)c2)c1` [Compound 112, 4-[(3-chloro-5-methoxyphenyl)amino]-6-[(1H-indol-6-yl)amino]pyridine-2-carbonitrile] came in with an EC50 of 0.2 to 1 µM.

In the case of `CC(C)CN1CCN(c2cc(C#N)nc(Nc3ccc4cc[nH]c4c3)c2)CC1` [Compound 113, 6-[(1H-indol-6-yl)amino]-4-[4-(2-methylpropyl)piperazin-1-yl]pyridine-2-carbonitrile], the half-maximal effective concentration (EC50) (class symbols) lay in the range of 1 to 5 µM.

In turn, `N#Cc1cc(N2CCOCC2)cc(Nc2ccc3cc[nH]c3c2)n1` [Compound 114, 6-[(1H-indol-6-yl)amino]-4-(morpholin-4-yl)pyridine-2-carbonitrile] had a 50% effective concentration (EC50) (class symbols) of 5 to 100 µM.

Consider `CC(C)(C)c1cncc(Nc2cc(C#N)nc(Nc3ccc4cc[nH]c4c3)c2)c1` [Compound 115, 4-[(5-tert-butylpyridin-3-yl)amino]-6-[(1H-indol-6-yl)amino]pyridine-2-carbonitrile], for which the EC50 (class symbols) fell in the range of 1 to 5 µM.

For the setting “class symbols”, `N#Cc1cc(Nc2ccc(F)c(F)c2)cc(Nc2ccc3cc[nH]c3c2)n1` [Compound 116, 4-[(3,4-difluorophenyl)amino]-6-[(1H-indol-6-yl)amino]pyridine-2-carbonitrile] had a concentration giving a half-maximal response (EC50) of 0.2 to 1 µM.

In the case of `N#Cc1cc(Nc2ccc3c(c2)OC(F)(F)O3)cc(Nc2ccc3cc[nH]c3c2)n1` [Compound 117, 4-[(2,2-difluoro-2H-1,3-benzodioxol-5-yl)amino]-6-[(1H-indol-6-yl)amino]pyridine-2-carbonitrile], the 50% effective concentration (EC50) (class symbols) was in the range of 0.2 to 1 µM.

In the case of `N#Cc1cc(N2CCC(C(F)(F)F)CC2)cc(Nc2ccc3cc[nH]c3c2)n1` [Compound 118, 6-[(1H-indol-6-yl)amino]-4-[4-(trifluoromethyl)piperidin-1-yl]pyridine-2-carbonitrile], the EC50 (class symbols) is 1 to 5 µM.

`N#Cc1cc(N2CCC(Oc3ccccc3)CC2)cc(Nc2ccc3cc[nH]c3c2)n1` [Compound 119, 6-[(1H-indol-6-yl)amino]-4-(4-phenoxypiperidin-1-yl)pyridine-2-carbonitrile] had an EC50 (class symbols) of 0.2 to 1 µM.

For the compound `N#Cc1cc(N2CCN(CC(F)(F)F)CC2)cc(Nc2ccc3cc[nH]c3c2)n1` [Compound 120, 6-[(1H-indol-6-yl)amino]-4-[4-(2,2,2-trifluoroethyl)piperazin-1-yl]pyridine-2-carbonitrile], the EC50 (class symbols) was in the range of 5 to 100 µM.

Under “numeric bound”, `CN1CCN(c2cc(C#N)nc(Nc3ccc4cc[nH]c4c3)c2)CC1` [Compound 121, 6-((1H-indol-6-yl)amino)-4-(4-methylpiperazin-1-yl)picolinonitrile] returned an EC50 of over 30 µM.

As for `CC1(C)C(=O)Nc2cc(Nc3cc(C#N)nc(Nc4ccc5cc[nH]c5c4)c3)ccc21` [Compound 122, 4-[(3,3-dimethyl-2-oxo-2,3-dihydro-1H-indol-6-yl)amino]-6-[(1H-indol-6-yl)amino]pyridine-2-carbonitrile], the EC50 (class symbols) lay within 1 to 5 µM.

In turn, `N#Cc1cc(Nc2ccc3c(c2)C(=O)NC3)cc(Nc2ccc3cc[nH]c3c2)n1` [Compound 123, 6-[(1H-indol-6-yl)amino]-4-[(3-oxo-2,3-dihydro-1H-isoindol-5-yl)amino]pyridine-2-carbonitrile] gave a 50% effective concentration (EC50) (class symbols) of 5 to 100 µM.

`CC(C)c1cncc(Nc2cc(C#N)nc(Nc3ccc4cc[nH]c4c3)c2)c1` [Compound 124, 6-[(1H-indol-6-yl)amino]-4-{[5-(propan-2-yl)pyridin-3-yl]amino}pyridine-2-carbonitrile] had a concentration for a half-maximal effect (EC50) (class symbols) of 0.2 to 1 µM.

Where the note is “class symbols”, `N#Cc1cc(Nc2ccc(OC(F)(F)F)nc2)cc(Nc2ccc3cc[nH]c3c2)n1` [Compound 125, 6-[(1H-indol-6-yl)amino]-4-{[6-(trifluoromethoxy)pyridin-3-yl]amino}pyridine-2-carbonitrile] gave an EC50 of 0.2 to 1 µM.

As for `N#Cc1cc(Nc2ccc(OC(F)F)nc2)cc(Nc2ccc3cc[nH]c3c2)n1` [Compound 126, 4-{[6-(difluoromethoxy)pyridin-3-yl]amino}-6-[(1H-indol-6-yl)amino]pyridine-2-carbonitrile], the EC50 (class symbols) lay within 0.2 to 1 µM.

For the setting “class symbols”, `N#Cc1cc(Nc2ccc(OCC(F)(F)F)nc2)cc(Nc2ccc3cc[nH]c3c2)n1` [Compound 127, 6-[(1H-indol-6-yl)amino]-4-{[6-(2,2,2-trifluoroethoxy)pyridin-3-yl]amino}pyridine-2-carbonitrile] came in with a half-maximal effective concentration (EC50) of 0.2 to 1 µM.

Turning to `COc1cc(Nc2cc(C#N)nc(Nc3ccc4cc[nH]c4c3)c2)cnc1Cl` [Compound 128, 4-[(6-chloro-5-methoxypyridin-3-yl)amino]-6-[(1H-indol-6-yl)amino]pyridine-2-carbonitrile], where the note is “class symbols”, the half-maximal effective concentration (EC50) lay within 1 to 5 µM.

Regarding `N#Cc1cc(Nc2cncc(F)c2)cc(Nc2ccc3cc[nH]c3c2)n1` [Compound 129, 4-[(5-fluoropyridin-3-yl)amino]-6-[(1H-indol-6-yl)amino]pyridine-2-carbonitrile], the half-maximal effective concentration (EC50) (class symbols) was in the range of 1 to 5 µM.

In turn, `N#Cc1cc(Nc2ccc(C(F)(F)F)nc2)cc(Nc2ccc3cc[nH]c3c2)n1` [Compound 130, 6-[(1H-indol-6-yl)amino]-4-{[6-(trifluoromethyl)pyridin-3-yl]amino}pyridine-2-carbonitrile] displayed an EC50 (class symbols) of 0.2 to 1 µM.

`COc1ccc(Nc2cc(C#N)nc(Nc3ccc4cc[nH]c4c3)c2)cn1` [Compound 131, 6-[(1H-indol-6-yl)amino]-4-[(6-methoxypyridin-3-yl)amino]pyridine-2-carbonitrile]: the concentration giving a half-maximal response (EC50) (class symbols) is 1 to 5 µM.

Turning to `CNC(=O)c1ccc(Nc2cc(C#N)nc(Nc3ccc4cc[nH]c4c3)c2)cc1F` [Compound 132, 4-({2-cyano-6-[(1H-indol-6-yl)amino]pyridin-4-yl}amino)-2-fluoro-N-methylbenzamide], the EC50 (class symbols) is 5 to 100 µM.

Turning to `N#Cc1cc(Nc2ccc(C(F)(F)F)c(Cl)c2)cc(Nc2ccc3cc[nH]c3c2)n1` [Compound 133, 4-{[3-chloro-4-(trifluoromethyl)phenyl]amino}-6-[(1H-indol-6-yl)amino]pyridine-2-carbonitrile], under “class symbols”, the EC50 fell in the range of 0.2 to 1 µM.
